Test results reported in PubChem BioAssay (NCI).
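Interpolation was linear, between the two tested concentrations surrounding the appropriate level; five concentrations were tested over 48 hours in 96-well plates. Definition used: TGI = concentration required for complete inhibition of growth.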

Key:
Experiment in all cases: NCI-60 cell line screen, 48 h
NCI-H460 lung = system: NCI-H460 lung
MCF7 breast = system: MCF7 breast
NCI/ADR-RES ovarian = system: NCI/ADR-RES ovarian
OVCAR-8 ovarian = system: OVCAR-8 ovarian
HL-60(TB) leukemia = system: HL-60(TB) leukemia
TK-10 renal = system: TK-10 renal
PC-3 prostate = system: PC-3 prostate
SNB-19 CNS = system: SNB-19 CNS
SNB-75 CNS = system: SNB-75 CNS
HS 578T breast = system: HS 578T breast
SW-620 colon = system: SW-620 colon
OVCAR-4 ovarian = system: OVCAR-4 ovarian
MDA-N = system: MDA-N
IGROV1 ovarian = system: IGROV1 ovarian
DU-145 prostate = system: DU-145 prostate
T-47D breast = system: T-47D breast
UACC-62 melanoma = system: UACC-62 melanoma
M14 melanoma = system: M14 melanoma
SK-MEL-2 melanoma = system: SK-MEL-2 melanoma

Row | Compound | TGI (NCI-H460 lung) [µM] | TGI (MCF7 breast) [µM] | TGI (NCI/ADR-RES ovarian) [µM] | TGI (OVCAR-8 ovarian) [µM] | TGI (HL-60(TB) leukemia) [µM] | TGI (TK-10 renal) [µM] | TGI (PC-3 prostate) [µM] | TGI (SNB-19 CNS) [µM] | TGI (SNB-75 CNS) [µM] | TGI (HS 578T breast) [µM] | TGI (SW-620 colon) [µM] | TGI (OVCAR-4 ovarian) [µM] | TGI (MDA-N) [µM] | TGI (IGROV1 ovarian) [µM] | TGI (DU-145 prostate) [µM] | TGI (T-47D breast) [µM] | TGI (UACC-62 melanoma) [µM] | TGI (M14 melanoma) [µM] | TGI (SK-MEL-2 melanoma) [µM]
1 | N#CCOc1ccc(/C=C/C(=O)c2ccc(Cl)cc2)cc1 | 64.2 | 54.1 | 48.5 | 93.6 | > 100 | 74.5 | > 100 | 61.7 | 37.2 | 50.9 | 70.4 | > 100 | > 100 | 60.4 | > 100 | 61.2 | 41.6 | > 100 | –
2 | COC(=O)C(C(=O)C(=O)Nc1ccccc1C#N)c1nc2ccc([N+](=O)[O-])cc2[nH]c1=O (centres undefined) | > 100 | > 100 | > 100 | > 100 | – | > 100 | > 100 | > 100 | > 100 | > 100 | > 100 | > 100 | > 100 | > 100 | > 100 | > 100 | > 100 | > 100 | > 100
3 | O=c1oc2ccccc2c(O)c1/C=N/C(=S)NCc1ccccc1 | > 100 | > 100 | > 100 | > 100 | > 100 | 51.8 | > 100 | > 100 | > 100 | – | > 100 | > 100 | > 100 | > 100 | > 100 | > 100 | – | > 100 | > 100
4 | S=C(N/N=C/c1ccccn1)Nc1ccc(Cl)cc1 | > 100 | > 100 | – | > 42.8 | 0.0796 | > 96 | > 100 | > 39 | 8.74 | > 67.2 | > 100 | > 100 | > 100 | 25.6 | > 100 | > 100 | 1.51 | – | > 100
5 | CCOC(=O)CSc1nnc(CSc2nc(-c3ccccc3)c(-c3ccccc3)[nH]2)n1-c1ccccc1 | > 100 | > 100 | > 100 | 35.3 | 98.8 | 31.9 | 43.8 | > 100 | > 100 | – | > 100 | 48.3 | > 100 | > 100 | 30.1 | 89.7 | 71.6 | > 62.4 | > 31.6
6 | COc1cc(C(=O)C2C(=O)c3ccccc3C2C2(O)c3ccccc3CC2C(O)c2cc(OC)c(OC)c(OC)c2)cc(OC)c1OC (centres undefined) | > 100 | > 100 | > 100 | > 100 | – | > 100 | > 100 | > 100 | 94.3 | > 100 | > 100 | > 100 | > 100 | > 100 | > 100 | > 100 | > 100 | > 100 | > 100
7 | N=C(N)SCc1cc(Cl)cc(Cl)c1O | 36.2 | 60.1 | 89.3 | 38.3 | 21.1 | 35.4 | 43.9 | 56.8 | – | 72 | 49.4 | 51.6 | 33.1 | 38.2 | 36.2 | 51.8 | 34 | 42.1 | 39.6
8 | COC(=O)c1ccc(NCc2c(O)ccc(O)c2Br)cc1Cl | 41.9 | 32.2 | 44.9 | 30 | 4.52 | – | 44 | > 100 | 70.2 | 95.4 | 25 | 44.2 | 26 | 28.7 | 30.4 | 43.3 | 30.3 | 33.3 | 40.8
9 | Cc1ccc(N=C2S/C(=C3/CCC=C3N3CCOCC3)N(c3ccc(Cl)cc3)C2=Nc2ccc(C)cc2)cc1 | > 100 | > 100 | – | > 100 | > 100 | > 100 | > 100 | > 100 | > 100 | > 100 | > 100 | – | > 100 | > 100 | – | > 100 | > 100 | > 100 | > 100
10 | COC1(OC)N=C(N)C2(C#N)C3(C(=O)N(C(C)C)N=C3C)C12C#N (centres undefined) | > 100 | > 100 | > 100 | > 100 | > 100 | – | > 100 | > 100 | > 100 | – | > 100 | > 100 | > 100 | > 100 | > 100 | > 100 | > 100 | > 100 | > 100
11 | O=c1c2ccccc2nc2n1C(c1ccc([N+](=O)[O-])cc1)C2(c1ccccc1)c1ccccc1 (centres undefined) | > 100 | > 100 | > 100 | > 100 | > 100 | > 100 | > 100 | > 100 | – | > 100 | > 100 | > 100 | > 100 | > 100 | > 100 | > 100 | > 100 | > 100 | > 100
12 | COC(=O)C(Cc1ccccc1)NP(=O)(O)OCC1OC(n2cc(I)c(=O)[nH]c2=O)CC1O (centres undefined) | > 100 | > 100 | > 100 | > 100 | > 100 | > 100 | > 100 | > 100 | > 100 | > 100 | > 100 | > 100 | > 100 | > 100 | > 100 | > 100 | > 100 | > 100 | –
13 | COC(=O)C1(C(=O)OC)N=C(C)OC1c1ccccn1 (centres undefined) | > 100 | > 100 | > 100 | > 100 | > 100 | > 100 | > 100 | > 100 | > 100 | – | > 100 | > 100 | > 100 | > 100 | > 100 | > 100 | > 100 | > 100 | > 100
